From US20080076824A1, “Compounds That Inhibit Replication Of Human Immunodeficiency Virus” (priority 2004, published 2008)
Several values for one entry are separate records, joined by “and”; a condition that tells them apart may be missing. Equal values may be shown once. Entries after “also recorded” stand apart in the source; their conditions may differ. Where a name gives a salt, the structure may show the parent alone. Read-outs that look alike come from different tables or passages of the source.

Tests used:
[1] = test system: HIV-2 (ROD); experiment: microbe, parasite or virus in culture; format: cell-based; conditions: Human immunodeficiency virus 2, CCRF-CEM, read-out: EC50 (CEM) HIV-2 (ROD)
Method in brief: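 CEM, C8166 or MT-4 cells (4 to 5×10^5 cells/ml) infected with HIV-2 ROD at ~100 CCID50/ml, then incubated with 5-fold compound dilutions at 37 °C for 4–5 days. Giant cell formation scored microscopically in CEM and C8166 cultures; MT-4 viability counted by trypan blue exclusion.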

[2] = test system: HIV-1 (IIIB); experiment: microbe, parasite or virus in culture; conditions: Human immunodeficiency virus 1, IIIB
Procedure: (§1) MT-4, C8166 or CEM cells (4 to 5×10^5 cells per ml) were suspended in fresh culture medium (RPMI-1640 medium supplemented with 10% fetal bovine serum (FBS) (BioWittaker Europe, Verviers, Belgium), 2 mM L-glutamine and […] NaHCO3). Subsequently, the cells were infected with HIV-1 (IIIB) or HIV-2(ROD) at ˜100 CCID50 (1 CCID50 being the dose infective for 50% of the cell cultures) per ml of cell suspension. Then, 100 μl of the infected cell suspension were transferred to 96-well microplate wells, mixed with 100 μl of the appropriate (5-fold) dilutions of the test compounds and further incubated at 37° C. After 4 to 5 days, giant cell formation was recorded microscopically in the CEM and C8166 cell cultures. The MT-4 cell cultures were treated with trypan blue and the number of viable cells was determined.

[3] = test system: HIV-2(ROD); experiment: microbe, parasite or virus in culture
Procedure: as §1

[4] = test system: HIV (SF2 virus); experiment: HIV infectivity assay, SF2-infected H9 cells, reverse transcriptase (RT) quantification in supernatant; format: cell-based; conditions: for RT mean / RT / OD405-620 / OD405-620 - Blank: fetal calf serum; for RT mean: mean of replicates; for RT: single replicate; for RT / OD405-620 / OD405-620 - Blank: listed as αHGA, hydrochloride
[5] = test system: HIV (SF2 virus); experiment: HIV infectivity assay, SF2-infected H9 cells, p24 quantification; format: cell-based; conditions: hydrochloride
Procedure: The remaining wells were filled with sterile distilled water. The cell culture plates were incubated at 37° C. and 5% CO2. After four days the medium was changed, after eight days the medium was changed and the cells were collected. After 11 days, the infection was stopped, the cells were viewed in a 10× magnification microscope and 650 μl of each cell supernatant was collected and frozen at −80° C. for further analysis. After five more days, the supernatants were thawed and used in a conventional reverse transcriptase (RT) activity assay (e.g., Roche AMPLICOR MONITOR™) or a p24 quantification assay (e.g., Abbott Laboratories, Chicago). (See U.S. Pat. No. 6,258,932 and U.S. patent application Ser. No. 10/235,158, both of which are hereby expressly incorporated by reference in its entireties).
[…] The cells in the samples were counted and then centrifuged. The cells were then resuspended in 10 ml of RPMI 1640 (containing fetal calf serum) and either […] Metabolite X or 100 μM GPG-NH2. Uninfected control and untreated control samples were also included in the experiment. The samples were then incubated overnight at 37° C. at 5% CO2.
Then, the amount of p24 in the samples was analysed using a conventional p24 detection assay (see U.S. Pat. No. 6,258,932).
Three replicate samples (“replicates”) of uninfected samples and untreated samples were also included in the experiment as controls. The inhibition of HIV replication was monitored by quantifying the levels of p24 using a conventional detection kit.
Three replicates of unninfected samples and untreated samples were also included in the experiment as controls.

Question: For NC(=O)C(N)O (stereo not drawn) [AlphaHGA, α-Hydroxy-glycinamide hydrochloride], which EC50 [1] is on record?
Answer: Its EC50 is 52 ± 23 µM.

Question: And the EC50 ([2]; C8166, read-out: EC50 (C8166) HIV-1 (IIIB))?
Answer: The EC50 was 200 µM.

Question: What about the EC50 ([2]; MT4, read-out: EC50 (MT-4) HIV-1 (IIIB)) of the same compound?
Answer: The EC50 was no less than 500 µM.

Question: What about the EC50 ([2]; MT4, read-out: EC50 (MT-4) HIV-1(IIIB)) of the same compound?
Answer: The EC50 was no less than 500 µM.

Question: What about the EC50 ([3]; Human immunodeficiency virus 2, C8166, read-out: EC50 (C8166) HIV-2 (ROD)) of the same compound?
Answer: The EC50 was 125 µM.

Question: What about the EC50 ([3]; Human immunodeficiency virus 2, MT4, read-out: EC50 (MT-4) HIV-2 (ROD)) of the same compound?
Answer: The EC50 was no less than 500 µM.

Question: And the EC50 ([3]; read-out: EC50 (MT-4) HIV-2 (ROD), Table 20)?
Answer: The EC50 was no less than 500 µM.

Question: What about the RT mean ([4]; 0.5 μM) of the same compound?
Answer: The RT mean was 7539 pg/mL.

Question: And the RT ([4]; 0.5 μM)?
Answer: Its RT is 6982 pg/mL and 9916 pg/mL and 5721 pg/mL.

Question: And the OD405-620 ([4]; 0.5 μM)?
Answer: Its OD405-620 is 0.692 and 0.962 and 0.576.

Question: And the “OD405-620 - Blank” value ([4]; 0.5 μM)?
Answer: Its value is 0.666 and 0.936 and 0.55.

Question: What about the RT mean ([4]; 1 μM) of the same compound?
Answer: The RT mean was 4594 pg/mL.

Question: What about the RT ([4]; 1 μM) of the same compound?
Answer: Its RT is 5590 pg/mL and 4482 pg/mL and 3710 pg/mL.

Question: And the OD405-620 ([4]; 1 μM)?
Answer: Its OD405-620 is 0.564 and 0.462 and 0.391.

Question: What about the “OD405-620 - Blank” value ([4]; 1 μM) of the same compound?
Answer: Its value is 0.538 and 0.436 and 0.365.

Question: And the RT mean ([4]; 2 μM)?
Answer: The RT mean was 5934 pg/mL.

Question: And the RT ([4]; 2 μM)?
Answer: Its RT is 8003 pg/mL and 6492 pg/mL and 3308 pg/mL.

Question: And the RT mean ([4]; 4 μM)?
Answer: The RT mean was 5315 pg/mL.

Question: What about the RT ([4]; 4 μM) of the same compound?
Answer: The RT was 5340 pg/mL and 4688 pg/mL and 5916 pg/mL.

Question: And the OD405-620 ([4]; 4 μM)?
Answer: The OD405-620 was 0.541 and 0.481 and 0.594.

Question: What about the “OD405-620 - Blank” value ([4]; 4 μM) of the same compound?
Answer: The value was 0.515 and 0.455 and 0.568.

Question: What about the RT mean ([4]; 8 μM) of the same compound?
Answer: Its RT mean is 5300 pg/mL.

Question: What about the RT ([4]; 8 μM) of the same compound?
Answer: The RT was 6688 pg/mL and 4971 pg/mL and 4242 pg/mL.

Question: And the OD405-620 ([4]; 8 μM)?
Answer: Its OD405-620 is 0.665 and 0.507 and 0.44.

Question: What about the “OD405-620 - Blank” value ([4]; 8 μM) of the same compound?
Answer: Its value is 0.639 and 0.481 and 0.414.

Question: And the RT mean ([4]; 16 μM)?
Answer: Its RT mean is 1134 pg/mL.

Question: What about the RT ([4]; 16 μM) of the same compound?
Answer: Its RT is 1514 pg/mL and 666 pg/mL and 1221 pg/mL.

Question: What about the OD405-620 ([4]; 16 μM) of the same compound?
Answer: The OD405-620 was 0.189 and 0.111 and 0.162.

Question: And the “OD405-620 - Blank” value ([4]; 16 μM)?
Answer: Its value is 0.163 and 0.085 and 0.136.

Question: What about the “HIV replication at 25 μM” value ([4]; 25 μM) of the same compound?
Answer: The value was “neglible levels”.

Question: And the RT mean ([4]; 32 μM)?
Answer: Its RT mean is 72 pg/mL.

Question: And the RT ([4]; 32 μM)?
Answer: Its RT is 48 pg/mL and 70 pg/mL and 97 pg/mL.

Question: And the OD405-620 ([4]; 32 μM)?
Answer: Its OD405-620 is 0.269 and 0.373 and 0.497.

Question: And the “OD405-620 - Blank” value ([4]; 32 μM)?
Answer: Its value is 0.243 and 0.347 and 0.471.

Question: And the IC50 ([4]; Human immunodeficiency virus 1, H9, 264 h)?
Answer: Its IC50 is 6 to 9 µM.

Question: And the “stability to incubation at 37° C.” value ([4]; diluted sample, antiretroviral activity compared with freshly diluted compound)?
Answer: The value was “stable to incubation at 37 °C for at least three days”.

Question: And the “concentration for appreciable inhibition of HIV replication” value ([4]; whether heat-treated or not)?
Answer: Its value is “above 8 μM”.

Question: And the “concentration for better antiretroviral activity” value ([4]; whether heat-treated or not)?
Answer: Its value is “above 16 μM”.

Question: What about the “concentration for very efficient inhibition of HIV replication” value ([4]; whether heat-treated or not) of the same compound?
Answer: Its value is “above 30 μM”.

Question: What about the OD1 ([5]; 50 μM, fetal calf serum, replicates (1)-(3)) of the same compound?
Answer: Its OD1 is 0.183 and 0.232 and 0.147.

Question: What about the OD2 ([5]; 50 μM, fetal calf serum) of the same compound?
Answer: Its OD2 is 0.185 and 0.216 and 0.139.

Question: And the “conc p24” value ([5]; 50 μM, fetal calf serum)?
Answer: The value was 0.26 ng/mL and 0.33 ng/mL and 0.20 ng/mL.

Question: What about the “mean OD” value ([5]; 50 μM, fetal calf serum) of the same compound?
Answer: The value was 0.184 and 0.224 and 0.143.

Question: And the “mean OD - blank” value ([5]; 50 μM, fetal calf serum)?
Answer: The value was 0.142 and 0.182 and 0.101.

Question: What about the “inhibition of HIV, accumulation of p24, compared with reference” value ([5]; fetal calf serum) of the same compound?
Answer: Its value is “as effectively as GPG-NH2; also recorded: as effectively as G-NH2”.

Question: What about the “inhibition of HIV replication, accumulation of p24” value ([5]; human serum) of the same compound?
Answer: The value was “effective inhibitors of HIV replication in human serum; also recorded: inhibited HIV replication in human serum”.
